Measurements: BindingDB's records for doi:10.1016/j.bmcl.2011.06.070 (Novartis Institutes For Biomedical Research, 2011)

Test: Antagonist activity at CXCR3 in rat leukocytes assessed as inhibition of ITAC-induced cell migration by flow cytometry

| Structure (SMILES) | IC50 [nM] |
| --- | --- |
| O=C([C@@H]1C=C2c3cccc4[nH]cc(c34)C[C@H]2N(C(=O)Nc2ccccc2)C1)N1CCOCC1 | 78 |
| O=C([C@@H]1C=C2c3cccc4[nH]cc(c34)C[C@H]2N(C(=O)Nc2ccccc2)C1)N1CCCC1 | 19 |
| O=C([C@@H]1C=C2c3cccc4[nH]cc(c34)C[C@H]2N(C(=O)Nc2ccccc2)C1)N1CCCCC1 | 13 |
| CCN(CC)C(=O)[C@@H]1C=C2c3cccc4[nH]cc(c34)C[C@H]2N(C(=O)Nc2ccccc2)C1 [(6aR,9R)-N9,N9-diethyl-N7-phenyl-6,6a,8,9-tetrahydroindolo[4,3-fg]quinoline-7,9(4H)-dicarboxamide] | 74 |
